Assay [1] addresses human LOXL2 (Homo sapiens (Human), UniProt Q9Y4K0). The assay is described as follows: Human LOXL2 amine oxidase activity assay (Amplex Red). The assay is classed as biochemical. The following applies: concentrated conditioned media from CHO cells expressing human LOXL2, 2 h preincubation at 37° C., DAP substrate. The protocol:
Example B-2: Human LOXL2 Amine Oxidase Activity Assay
LOXL2 amine oxidase activity was evaluated by measuring Amplex Red fluorescence using 10-20× concentrated conditioned media from CHO cells stably expressing human LOXL2. To assay for amine oxidase activity, 10 μL of the concentrated conditioned media was incubated with 2 μL of test compound in DMSO and 73 μL Assay Buffer (50 mM Borate Buffer, pH8) for 2 h at 37° C. After the 2 h incubation, 5 μL of 10 mM 1,5-Diaminopentane (DAP) diluted in Assay Buffer and 10 μL of Amplex Red Mix (8.5 μL Assay Buffer+0.5 μL of 10 mM Amplex Red+1 μL of 500 U/ml Horseradish Peroxidase) were added and the plate mixed and immediately placed on the FlexStation for fluorescence measurements. Fluorescence was read in kinetic mode every 2 min for 0.5-1 hour at excitation=544 and emission=590. The amine oxidase activity was calculated from the slope of the linear portion of the curve. Wells containing vehicle (DMSO) represented maximum activity and were set to 0% inhibition and wells containing 100 μM βAPN (3-aminopropionitrile) represented no activity and were set to 100% inhibition.

The target in assay [2] is ASK1 (Homo sapiens (Human), UniProt Q99683). The experiment in a line: Human ASK1 ADP-Glo kinase assay. The assay is classed as biochemical. The following applies: recombinant ASK1 (amino acids 649-946), 50 μM ATP, MBP substrate. On the procedure: Example B-1: Human ASK1 ADP-Glo Assay
Sequence of ASK1 (Q99683 649-946): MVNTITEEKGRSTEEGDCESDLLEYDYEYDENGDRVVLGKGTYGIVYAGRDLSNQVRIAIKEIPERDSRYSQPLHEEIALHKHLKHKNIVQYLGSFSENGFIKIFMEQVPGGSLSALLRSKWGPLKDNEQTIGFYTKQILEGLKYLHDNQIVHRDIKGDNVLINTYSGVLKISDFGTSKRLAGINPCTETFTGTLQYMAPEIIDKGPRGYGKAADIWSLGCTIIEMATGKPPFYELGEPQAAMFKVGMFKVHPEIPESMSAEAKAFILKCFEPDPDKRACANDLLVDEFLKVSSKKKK
The ability of test compounds to inhibit ASK1 kinase activity was determined using the luminescent ADP-Glo™ Kinase Assay and Myelin Basic Protein (MBP) as a substrate (Promega Corporation, Madison, Wis.). During the kinase reaction, ASK1 utilizes ATP and generates ADP. The remaining ATP is then depleted by addition of the ADP-Glo™ reagent which also terminates the reaction. Subsequent addition of the Kinase Detection Reagent converts the ADP that was produced during the kinase reaction to ATP, and this newly synthesized ATP is converted to light using the luciferase/luciferin reactions. The assay was performed according to the manufacturer's instructions. Briefly, purified, recombinant ASK1 (amino acids 649-946) (10-20 ng/well) was added to a 384-well, F bottom, small volume, HIbase, white plate (Greiner Bio-One, Monroe, N.C. #784075) containing 1-2 μL 5× test compound or vehicle control (diluted 1:20 from a 100% DMSO stock solution into 1× Reaction Buffer A). The enzyme was allowed to pre-incubate with test compound from 15-120 min at 30° C. before the addition of the ATP/substrate mix (final concentrations of 50 μM ATP+250 ng MBP in 1× Reaction Buffer A). The mixture was then incubated at room temperature for 40 min before the addition of ADP-Glo™ reagent and a second 40 minute room temperature incubation. Following the addition of the Kinase Detection Reagent, the plate was incubated for an additional 40 min at room temperature before reading luminescence on a FlexStation 3 (Molecular Devices, Sunnyvale, Calif.). Maximum activity was determined from wells treated with vehicle and was set to 100% and minimum activity was determined from wells containing no enzyme and this was set to 0%. Percent inhibition was calculated relative to the controls and the data graphed in Collaborative Drug Discovery (CDD) Vault (Burlingame, Calif.).

Counter-ions that a name gives are not always drawn. Some results are limits rather than exact numbers.

Sequence of human LOXL2 (Q9Y4K0 26-774): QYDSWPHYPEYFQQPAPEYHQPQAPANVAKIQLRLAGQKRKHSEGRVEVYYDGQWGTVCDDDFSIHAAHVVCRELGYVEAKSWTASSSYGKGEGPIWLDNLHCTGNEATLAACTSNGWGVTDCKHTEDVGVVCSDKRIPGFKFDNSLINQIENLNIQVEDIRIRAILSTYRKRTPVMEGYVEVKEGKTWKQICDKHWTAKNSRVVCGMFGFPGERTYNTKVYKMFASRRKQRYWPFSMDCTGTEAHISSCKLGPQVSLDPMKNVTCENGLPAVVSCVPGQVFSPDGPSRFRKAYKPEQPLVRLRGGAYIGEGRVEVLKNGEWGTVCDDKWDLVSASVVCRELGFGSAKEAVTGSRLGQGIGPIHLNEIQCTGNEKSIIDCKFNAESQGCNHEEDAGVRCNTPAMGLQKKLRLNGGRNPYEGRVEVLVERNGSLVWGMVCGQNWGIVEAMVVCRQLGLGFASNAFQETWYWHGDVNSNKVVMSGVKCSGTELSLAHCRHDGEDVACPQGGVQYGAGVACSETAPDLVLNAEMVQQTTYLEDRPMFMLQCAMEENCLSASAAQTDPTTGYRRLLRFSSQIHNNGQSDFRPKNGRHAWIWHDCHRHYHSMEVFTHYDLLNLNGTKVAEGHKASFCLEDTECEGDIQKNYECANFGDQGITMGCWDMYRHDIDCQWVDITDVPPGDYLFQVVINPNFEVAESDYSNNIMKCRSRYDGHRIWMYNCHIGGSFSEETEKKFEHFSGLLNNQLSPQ

In general, IC50 refers to the point on the concentration scale where inhibition reaches its midpoint. As to `CC(C)n1cnnc1-c1cccc(NC(=O)c2cc(NC(=O)c3ccc(CN)cc3)ccc2F)n1` [Compound 1-306, 5-(4-(Aminomethyl)benzamido)-2-fluoro-N-(6-(4-isopropyl-4H-1,2,4-triazol-3-yl)pyridin-2-yl)benzamide hydrochloride], the IC50 in assay [1] is greater than 1000 nM; in assay [2] it was less than 300 nM.

As to `CC(C)n1cnnc1-c1cccc(NC(=O)c2cccc(Oc3cc(CN)cc(C(F)(F)F)n3)c2)n1` [Compound 1-331, 3-((4-(Aminomethyl)-6-(trifluoromethyl)pyridin-2-yl)oxy)-N-(6-(4-isopropyl-4H-1,2,4-triazol-3-yl)pyridin-2-yl)benzamide hydrochloride], the IC50 in assay [1] and in assay [2] was less than 300 nM throughout.

Regarding `NCc1cc(Oc2ccnc(C(=O)Nc3cccc(-c4nncn4C4CC4)n3)c2)nc(C(F)(F)F)c1` [Compound 1-330, 4-((4-(Aminomethyl)-6-(trifluoromethyl)pyridin-2-yl)oxy)-N-(6-(4-cyclopropyl-4H-1,2,4-triazol-3-yl)pyridin-2-yl)picolinamide hydrochloride], the IC50 in assay [1] and in assay [2] was less than 300 nM throughout.

`CC(C)n1cnnc1-c1cccc(NC(=O)c2cc(NC(=O)Cc3ccccc3)ccc2F)n1` [Compound 1-333, 2-Fluoro-N-(6-(4-isopropyl-4H-1,2,4-triazol-3-yl)pyridin-2-yl)-5-(2-phenylacetamido)benzamide trifluoroacetate]: in assay [2], the IC50 is less than 300 nM.

The values are drawn from patent US11345676B2, “Apoptosis signal-regulating kinase 1 (ASK 1) inhibitor compounds” (PHARMAKEA, INC., priority 2017, dated 2022).
